Data published in the supplement of paper PMC11061612.

What was measured:
[1] = test system: SUP-B15 (B-Lymphoblastic Leukemia); assay: Bliss excess, mean over the matrix (fraction); higher = more synergy;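 further: after 72 h of two-drug dosing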
Method in brief: (§1)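 Cell lines in DMEM/F12 or RPMI with 10% FBS were plated in 1536-well plates, held 24 hours at 37°C, 5% CO2, then given two-drug dose matrices for 72 hours (DMSO typically 0.2%). Viability was read by CellTiter-Glo 2.0 luminescence and scaled as inhibition from 0 (vehicle wells) to 1 (blank wells). Combination Emax is the second-highest inhibition in the matrix; Bliss excess is observed combination effect minus expected EA + EB − EA·EB, EA and EB being single-agent effects.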

[2] = test system: CHSA8926 (Chondrosarcoma); assay: combination Emax (second highest fraction inhibited in the dose matrix, 72 h); higher = more inhibition; extreme values may be limits of the assay
Method in brief: as §1

[3] = test system: DMS-114 (Small Cell Lung Carcinoma); assay: as above
Method in brief: as §1

[4] = test system: ESO51 (Esophageal Adenocarcinoma); assay: as above
Method in brief: as §1

[5] = test system: H9 (T-Cell Non-Hodgkin's Lymphoma); assay: as above
Method in brief: as §1

[6] = test system: HCC1187 (Breast Carcinoma); assay: as above
Method in brief: as §1

[7] = test system: HCC1419 (Breast Carcinoma); assay: as above
Method in brief: as §1

[8] = test system: IM-95 (Gastric Carcinoma); assay: as above
Method in brief: as §1

[9] = test system: JHH-4 (Hepatocellular Carcinoma); assay: as above
Method in brief: as §1

[10] = test system: KP-3 (Pancreatic Carcinoma); assay: as above
Method in brief: as §1

[11] = test system: KYSE-270 (Esophageal Squamous Cell Carcinoma); assay: as above
Method in brief: as §1

M059J (Glioblastoma) = assay: as above
Method in brief: as §1

[12] = test system: MOLM-13 (Acute Myeloid Leukemia); assay: as above
Method in brief: as §1

NCI-H2731 (Mesothelioma) = assay: as above
Method in brief: as §1

[13] = test system: NCI-H661 (Non-Small Cell Lung Carcinoma); assay: as above
Method in brief: as §1

[14] = test system: RPMI-8226 (Plasma Cell Myeloma); assay: as above
Method in brief: as §1

SJSA-1 (Osteosarcoma) = assay: as above
Method in brief: as §1

[15] = test system: SK-GT-2 (Gastric Carcinoma); assay: as above
Method in brief: as §1

[16] = test system: SK-GT-4 (Esophageal Adenocarcinoma); assay: as above
Method in brief: as §1

[17] = test system: ST486 (Burkitt's Lymphoma); assay: as above
Method in brief: as §1

Compound	Bliss excess [1]	combination Emax [2]	combination Emax [3]	combination Emax [4]	combination Emax [5]	combination Emax [6]	combination Emax [7]	combination Emax [8]	combination Emax [9]	combination Emax [10]	combination Emax [11]	combination Emax (M059J (Glioblastoma))	combination Emax [12]	combination Emax (NCI-H2731 (Mesothelioma))	combination Emax [13]	combination Emax [14]	combination Emax (SJSA-1 (Osteosarcoma))	combination Emax [15]	combination Emax [16]	combination Emax [17]
CC1(C)CCC(CN2CCN(c3ccc(C(=O)NS(=O)(=O)c4ccc(NCC5CCOCC5)c([N+](=O)[O-])c4)c(Oc4cnc5[nH]ccc5c4)c3)CC2)=C(c2ccc(Cl)cc2)C1 [Venetoclax] + CN(C)CCCOc1ccc(-c2ccc3ncc4c(c3c2)n(C2CCOCC2)c(=O)n4C)cn1 [AZD0156] (first compound max 1 µM, 7x7, partner max 1 µM)	-0.0392	0.212	0.245	0.147	0.156	0.173	0.289	0.19	0.234	0.146	0.785	0.169	0.898	0.145	0.122	0.43	0.177	0.155	0.392	0.77
CC1(C)CCC(CN2CCN(c3ccc(C(=O)NS(=O)(=O)c4ccc(NCC5CCOCC5)c([N+](=O)[O-])c4)c(Oc4cnc5[nH]ccc5c4)c3)CC2)=C(c2ccc(Cl)cc2)C1 [Venetoclax] + C[C@@H](Nc1cc(F)cc(F)c1)c1cc(C(=O)N(C)C)cc2c(=O)cc(N3CCOCC3)oc12 [AZD8186] (first compound max 1 µM, 7x7, partner max 3 µM)	-0.0587	0.478	0.113	0.334	0.299	0.138	0.181	0.208	0.211	0.0603	0.653	0.306	1	0.107	0.164	0.194	0.123	0.0218	0.229	0.695
CN(CCO)CC[C@H](CSc1ccccc1)Nc1ccc(S(=O)(=O)NC(=O)c2ccc(N3CCC([C@@H](O)c4ccccc4-c4ccc(Cl)cc4)CC3)cc2)cc1S(=O)(=O)C(F)(F)F [AZD4320] + C[C@@H]1COCCN1C2=NC(=NC(=C2)C3(CC3)[S@](=N)(=O)C)C4=C5C=CNC5=NC=C4 [AZD6738] (first compound max 1 µM, 7x7, partner max 10 µM)	0.0245	0.761	0.592	0.861	1	0.536	0.367	0.778	0.385	0.486	0.78	0.774	1	0.328	0.674	1	0.557	0.633	0.675	0.969
CC1(C)CCC(CN2CCN(c3ccc(C(=O)NS(=O)(=O)c4ccc(NCC5CCOCC5)c([N+](=O)[O-])c4)c(Oc4cnc5[nH]ccc5c4)c3)CC2)=C(c2ccc(Cl)cc2)C1 [Venetoclax] + CCN(CCO)CCCOc1ccc2c(Nc3cc(CC(=O)Nc4cccc(F)c4)[nH]n3)ncnc2c1 [AZD2811] (first compound max 1 µM, 7x7, partner max 1 µM)	0.0132	0.34	0.207	0.117	0.888	0.886	0.212	0.412	0.205	0.148	0.716	0.375	1	0.211	0.143	0.481	0.222	0.155	0.409	0.925
